ChEMBL document CHEMBL4304811, “Development of a Water-Soluble Indolylmaleimide Derivative IM-93 Showing Dual Inhibition of Ferroptosis and NETosis” (ACS Med Chem Lett, 2019)
The source made the active and inactive calls. The rule behind the calls is not given here.

What was measured:
[1] = target: Phosphatidylinositol 4-kinase beta (Homo sapiens) (UniProt Q9UBF8); assay: Binding affinity to wild-type human full length PIK4CB (M1 to M828 residues) expressed in mammalian expression system assessed as residual binding level at 10 uM by Kinomescan method relative to control
[2] = target: MAP kinase-interacting serine/threonine-protein kinase 1 (Homo sapiens) (UniProt Q9BUB5); assay: Binding affinity to wild-type human full length MKNK1 (M1 to L424 residues) expressed in mammalian expression system assessed as residual binding level at 10 uM by Kinomescan method relative to control
[3] = target: Mast/stem cell growth factor receptor Kit (Homo sapiens) (UniProt P10721); assay: Binding affinity to wild-type human partial length autoinhibited KIT (Y545 to D952 residues) expressed in mammalian expression system assessed as residual binding level at 10 uM by Kinomescan method relative to control
[4] = target: Atypical kinase COQ8A, mitochondrial (Homo sapiens) (UniProt Q8NI60); assay: Binding affinity to wild-type human full length ADCK3 (M280 to Q647 residues) expressed in bacterial expression system assessed as residual binding level at 10 uM by Kinomescan method relative to control
[5] = target: Phosphatidylinositol 4,5-bisphosphate 3-kinase catalytic subunit delta isoform (Homo sapiens) (UniProt O00329); assay: Binding affinity to wild-type human partial length PIK3CD (R108 to Q1044 residues) expressed in mammalian expression system assessed as residual binding level at 10 uM by Kinomescan method relative to control
Neutrophil = assay: Inhibition of PMA-induced NETosis in human neutrophils at 25 uM preincubated for 30 mins followed by PMA stimulation and measured after 3 hrs by Hoechst […] staining based fluorescence microscopic analysis; assay type: functional, cell-based
[6] = target: Atypical kinase COQ8B, mitochondrial (Homo sapiens) (UniProt Q96D53); assay: Binding affinity to wild-type human full length ADCK4 (M1 to S544 residues) expressed in bacterial expression system assessed as residual binding level at 10 uM by Kinomescan method relative to control
[7] = system: Tyrosine-protein kinase ABL1 (Homo sapiens), P00519 [F317L]; assay: Binding affinity to human phosphorylated ABL1 F317L mutant (S229 to K512 residues) expressed in mammalian expression system assessed as residual binding level at 10 uM by Kinomescan method relative to control
[8] = target: Non-receptor tyrosine-protein kinase TYK2 (Homo sapiens) (UniProt P29597); assay: Binding affinity to wild-type human partial length TYK2 JH2 pseudokinase domain (G556 to D888 residues) expressed in mammalian expression system assessed as residual binding level at 10 uM by Kinomescan method relative to control
[9] = target: Serine/threonine-protein kinase TNNI3K (Homo sapiens) (UniProt Q59H18); assay: Binding affinity to wild-type human full length TNNI3K (M1 to S835 residues) expressed in bacterial expression system assessed as residual binding level at 10 uM by Kinomescan method relative to control
[10] = target: Calcium/calmodulin-dependent protein kinase kinase 2 (Homo sapiens) (UniProt Q96RR4); assay: Binding affinity to wild-type human partial length CAMKK2 (D65 to V471 residues) expressed in bacterial expression system assessed as residual binding level at 10 uM by Kinomescan method relative to control
[11] = system: Epidermal growth factor receptor (Homo sapiens), P00533 [G719S]; assay: Binding affinity to human partial length EGFR G719S mutant (R669 to V1011 residues) expressed in bacterial expression system assessed as residual binding level at 10 uM by Kinomescan method relative to control
[12] = target: Serine/threonine-protein kinase mTOR (Homo sapiens) (UniProt P42345); assay: Binding affinity to wild-type human partial length MTOR (L1382 to W2549 residues) expressed in mammalian expression system assessed as residual binding level at 10 uM by Kinomescan method relative to control
[13] = target: Dual specificity protein kinase TTK (Homo sapiens) (UniProt P33981); assay: Binding affinity to wild-type human partial length TTK (N505 to V798 residues) expressed in bacterial expression system assessed as residual binding level at 10 uM by Kinomescan method relative to control
[14] = system: Tyrosine-protein kinase ABL1 (Homo sapiens), P00519 [H396P]; assay: Binding affinity to human phosphorylated ABL1 H396P mutant (S229 to K512 residues) expressed in mammalian expression system assessed as residual binding level at 10 uM by Kinomescan method relative to control
[15] = target: cAMP-dependent protein kinase catalytic subunit PRKX (Homo sapiens) (UniProt P51817); assay: Binding affinity to wild-type human partial length PRKX (M1 to F358 residues) expressed in bacterial expression system assessed as residual binding level at 10 uM by Kinomescan method relative to control
[16] = target: Fibroblast growth factor receptor 4 (Homo sapiens) (UniProt P22455); assay: Binding affinity to wild-type human partial length FGFR4 (G402 to E713 residues) expressed in bacterial expression system assessed as residual binding level at 10 uM by Kinomescan method relative to control
[17] = target: Tyrosine-protein kinase receptor TYRO3 (Homo sapiens) (UniProt Q06418); assay: Binding affinity to wild-type human partial length TYRO3 (S497 to T814 residues) expressed in bacterial expression system assessed as residual binding level at 10 uM by Kinomescan method relative to control
[18] = target: Tyrosine-protein kinase CSK (Homo sapiens) (UniProt P41240); assay: Binding affinity to wild-type human full length CSK (M1 to L450 residues) expressed in bacterial expression system assessed as residual binding level at 10 uM by Kinomescan method relative to control
[19] = target: Vascular endothelial growth factor receptor 2 (Homo sapiens) (UniProt P35968); assay: Binding affinity to wild-type human partial length VEGFR2 (R787 to P1253 residues) expressed in mammalian expression system assessed as residual binding level at 10 uM by Kinomescan method relative to control
[20] = target: Uncharacterized serine/threonine-protein kinase SBK3 (Homo sapiens) (UniProt P0C264); assay: Binding affinity to wild-type human partial length SgK110 (L22 to R329 residues) expressed in bacterial expression system assessed as residual binding level at 10 uM by Kinomescan method relative to control
[21] = target: Protein-tyrosine kinase 2-beta (Homo sapiens) (UniProt Q14289); assay: Binding affinity to wild-type human full length PYK2 (M1 to E967 residues) expressed in bacterial expression system assessed as residual binding level at 10 uM by Kinomescan method relative to control
[22] = system: Tyrosine-protein kinase ABL1 (Homo sapiens), P00519 [H396P]; assay: Binding affinity to human non-phosphorylated ABL1 H396P mutant (S229 to K512 residues) expressed in mammalian expression system assessed as residual binding level at 10 uM by Kinomescan method relative to control
[23] = system: Receptor-type tyrosine-protein kinase FLT3 (Homo sapiens), P36888 [UNDEFINED MUTATION]; assay: Binding affinity to human partial length FLT3 ITD mutant expressed in bacterial expression system assessed as residual binding level at 10 uM by Kinomescan method relative to control

Protein-tyrosine kinase 2-beta (Homo sapiens), sequence (Q14289 whole entry, looked up, the tested form may be a part): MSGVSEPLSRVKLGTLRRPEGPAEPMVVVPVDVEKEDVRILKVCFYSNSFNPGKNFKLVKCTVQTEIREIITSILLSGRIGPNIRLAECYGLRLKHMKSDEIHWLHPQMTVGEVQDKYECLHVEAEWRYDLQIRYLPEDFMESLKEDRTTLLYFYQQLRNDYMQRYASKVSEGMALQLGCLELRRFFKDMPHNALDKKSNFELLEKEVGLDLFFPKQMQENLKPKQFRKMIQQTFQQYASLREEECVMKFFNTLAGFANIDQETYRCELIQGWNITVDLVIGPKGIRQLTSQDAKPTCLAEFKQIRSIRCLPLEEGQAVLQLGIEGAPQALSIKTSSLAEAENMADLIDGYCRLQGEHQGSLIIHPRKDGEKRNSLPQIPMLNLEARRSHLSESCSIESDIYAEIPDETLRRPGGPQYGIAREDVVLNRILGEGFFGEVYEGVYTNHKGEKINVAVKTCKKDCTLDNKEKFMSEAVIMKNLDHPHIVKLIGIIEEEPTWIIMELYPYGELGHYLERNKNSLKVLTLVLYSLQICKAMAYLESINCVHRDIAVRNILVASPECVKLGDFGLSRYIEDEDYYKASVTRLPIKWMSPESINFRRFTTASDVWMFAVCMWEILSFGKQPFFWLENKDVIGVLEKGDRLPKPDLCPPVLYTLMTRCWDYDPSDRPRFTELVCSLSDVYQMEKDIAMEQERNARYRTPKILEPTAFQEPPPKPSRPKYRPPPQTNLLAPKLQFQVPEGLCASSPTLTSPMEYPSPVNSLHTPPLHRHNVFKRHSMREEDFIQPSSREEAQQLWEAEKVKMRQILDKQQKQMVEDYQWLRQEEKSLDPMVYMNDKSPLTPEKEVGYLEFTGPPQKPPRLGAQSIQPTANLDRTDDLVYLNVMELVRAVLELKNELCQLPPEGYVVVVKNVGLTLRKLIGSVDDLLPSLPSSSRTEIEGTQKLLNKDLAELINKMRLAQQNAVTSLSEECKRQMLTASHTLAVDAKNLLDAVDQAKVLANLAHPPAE
Phosphatidylinositol 4-kinase beta (Homo sapiens), sequence (Q9UBF8 2-816 limits assumed): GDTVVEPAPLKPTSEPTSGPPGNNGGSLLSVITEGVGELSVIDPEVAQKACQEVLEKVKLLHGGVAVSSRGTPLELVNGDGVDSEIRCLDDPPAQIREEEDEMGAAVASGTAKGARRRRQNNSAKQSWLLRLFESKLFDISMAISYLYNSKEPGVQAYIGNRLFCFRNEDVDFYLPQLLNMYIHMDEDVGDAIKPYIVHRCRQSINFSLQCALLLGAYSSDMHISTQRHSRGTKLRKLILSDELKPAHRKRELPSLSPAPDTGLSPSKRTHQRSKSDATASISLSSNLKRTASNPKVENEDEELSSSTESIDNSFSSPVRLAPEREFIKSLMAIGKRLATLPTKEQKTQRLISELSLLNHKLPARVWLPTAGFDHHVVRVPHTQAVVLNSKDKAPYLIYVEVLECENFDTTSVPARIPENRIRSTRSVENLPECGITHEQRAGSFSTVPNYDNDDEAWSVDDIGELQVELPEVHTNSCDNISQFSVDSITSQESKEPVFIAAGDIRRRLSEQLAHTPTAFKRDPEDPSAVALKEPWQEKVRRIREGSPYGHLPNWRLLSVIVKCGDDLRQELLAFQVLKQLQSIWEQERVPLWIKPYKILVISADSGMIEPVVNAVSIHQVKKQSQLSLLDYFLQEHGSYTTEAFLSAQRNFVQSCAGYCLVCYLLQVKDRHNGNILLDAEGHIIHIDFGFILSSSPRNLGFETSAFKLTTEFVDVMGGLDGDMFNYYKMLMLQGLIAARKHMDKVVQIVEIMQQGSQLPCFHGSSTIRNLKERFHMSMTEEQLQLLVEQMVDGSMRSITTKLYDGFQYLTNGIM
Tyrosine-protein kinase receptor TYRO3 (Homo sapiens), sequence (Q06418 whole entry, the tested form may be a part): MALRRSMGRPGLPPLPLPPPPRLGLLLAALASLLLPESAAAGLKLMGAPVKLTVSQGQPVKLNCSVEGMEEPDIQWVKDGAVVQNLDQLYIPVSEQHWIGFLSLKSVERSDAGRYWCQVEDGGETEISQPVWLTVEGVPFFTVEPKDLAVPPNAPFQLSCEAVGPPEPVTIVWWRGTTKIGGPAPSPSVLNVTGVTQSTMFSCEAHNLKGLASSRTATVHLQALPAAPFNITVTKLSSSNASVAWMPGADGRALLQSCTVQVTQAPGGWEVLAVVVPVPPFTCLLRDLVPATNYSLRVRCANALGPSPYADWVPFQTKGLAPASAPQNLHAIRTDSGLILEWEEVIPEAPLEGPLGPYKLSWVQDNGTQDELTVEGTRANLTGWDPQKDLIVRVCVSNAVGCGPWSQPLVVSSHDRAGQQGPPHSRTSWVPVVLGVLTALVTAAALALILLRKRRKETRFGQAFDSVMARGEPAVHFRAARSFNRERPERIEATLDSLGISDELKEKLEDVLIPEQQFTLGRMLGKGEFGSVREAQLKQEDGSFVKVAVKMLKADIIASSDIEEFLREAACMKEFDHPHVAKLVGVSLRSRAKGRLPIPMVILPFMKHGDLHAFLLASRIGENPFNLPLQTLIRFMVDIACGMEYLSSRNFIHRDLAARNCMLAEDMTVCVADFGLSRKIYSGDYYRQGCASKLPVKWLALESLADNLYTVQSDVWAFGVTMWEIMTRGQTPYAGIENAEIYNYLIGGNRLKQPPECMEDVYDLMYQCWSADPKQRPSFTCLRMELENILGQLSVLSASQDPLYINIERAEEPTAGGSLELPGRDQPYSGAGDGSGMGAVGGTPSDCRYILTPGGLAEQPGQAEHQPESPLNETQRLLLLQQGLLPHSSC
Vascular endothelial growth factor receptor 2 (Homo sapiens), sequence (P35968 whole entry, the tested form may be a part): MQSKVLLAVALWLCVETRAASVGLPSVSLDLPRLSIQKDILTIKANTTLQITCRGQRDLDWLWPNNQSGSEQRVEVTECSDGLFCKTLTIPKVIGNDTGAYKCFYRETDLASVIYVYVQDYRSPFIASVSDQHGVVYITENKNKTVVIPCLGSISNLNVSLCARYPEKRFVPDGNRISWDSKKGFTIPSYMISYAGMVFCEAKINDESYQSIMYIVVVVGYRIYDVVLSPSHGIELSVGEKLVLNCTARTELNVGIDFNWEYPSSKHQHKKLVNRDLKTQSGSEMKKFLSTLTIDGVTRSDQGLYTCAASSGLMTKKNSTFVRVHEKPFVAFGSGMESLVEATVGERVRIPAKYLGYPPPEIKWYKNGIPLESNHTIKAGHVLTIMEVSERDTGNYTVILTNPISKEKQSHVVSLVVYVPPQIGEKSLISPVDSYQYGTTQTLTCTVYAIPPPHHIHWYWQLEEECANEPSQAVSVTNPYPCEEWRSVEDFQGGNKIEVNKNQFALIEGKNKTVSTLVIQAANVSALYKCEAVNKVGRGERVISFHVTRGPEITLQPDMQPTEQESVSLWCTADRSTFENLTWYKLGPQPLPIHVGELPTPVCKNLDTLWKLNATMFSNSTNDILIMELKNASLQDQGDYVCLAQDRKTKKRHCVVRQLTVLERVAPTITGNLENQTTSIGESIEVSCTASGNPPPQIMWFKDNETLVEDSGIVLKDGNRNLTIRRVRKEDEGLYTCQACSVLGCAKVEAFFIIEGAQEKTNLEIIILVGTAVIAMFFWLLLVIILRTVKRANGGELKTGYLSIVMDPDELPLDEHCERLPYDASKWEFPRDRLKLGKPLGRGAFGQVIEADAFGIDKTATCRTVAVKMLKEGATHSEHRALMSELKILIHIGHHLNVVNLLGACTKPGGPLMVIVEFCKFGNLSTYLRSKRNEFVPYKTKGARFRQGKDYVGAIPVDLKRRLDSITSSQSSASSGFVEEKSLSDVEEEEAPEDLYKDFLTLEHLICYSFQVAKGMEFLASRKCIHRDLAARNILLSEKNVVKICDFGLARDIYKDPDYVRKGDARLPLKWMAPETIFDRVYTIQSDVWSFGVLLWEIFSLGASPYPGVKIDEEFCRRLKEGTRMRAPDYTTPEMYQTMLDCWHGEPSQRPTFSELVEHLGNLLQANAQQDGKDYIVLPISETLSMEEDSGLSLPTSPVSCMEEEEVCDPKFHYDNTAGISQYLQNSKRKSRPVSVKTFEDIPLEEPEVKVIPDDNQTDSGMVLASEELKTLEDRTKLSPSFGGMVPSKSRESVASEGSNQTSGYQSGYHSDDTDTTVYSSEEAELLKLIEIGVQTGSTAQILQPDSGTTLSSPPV
Dual specificity protein kinase TTK (Homo sapiens), sequence (P33981 whole entry, the tested form may be a part): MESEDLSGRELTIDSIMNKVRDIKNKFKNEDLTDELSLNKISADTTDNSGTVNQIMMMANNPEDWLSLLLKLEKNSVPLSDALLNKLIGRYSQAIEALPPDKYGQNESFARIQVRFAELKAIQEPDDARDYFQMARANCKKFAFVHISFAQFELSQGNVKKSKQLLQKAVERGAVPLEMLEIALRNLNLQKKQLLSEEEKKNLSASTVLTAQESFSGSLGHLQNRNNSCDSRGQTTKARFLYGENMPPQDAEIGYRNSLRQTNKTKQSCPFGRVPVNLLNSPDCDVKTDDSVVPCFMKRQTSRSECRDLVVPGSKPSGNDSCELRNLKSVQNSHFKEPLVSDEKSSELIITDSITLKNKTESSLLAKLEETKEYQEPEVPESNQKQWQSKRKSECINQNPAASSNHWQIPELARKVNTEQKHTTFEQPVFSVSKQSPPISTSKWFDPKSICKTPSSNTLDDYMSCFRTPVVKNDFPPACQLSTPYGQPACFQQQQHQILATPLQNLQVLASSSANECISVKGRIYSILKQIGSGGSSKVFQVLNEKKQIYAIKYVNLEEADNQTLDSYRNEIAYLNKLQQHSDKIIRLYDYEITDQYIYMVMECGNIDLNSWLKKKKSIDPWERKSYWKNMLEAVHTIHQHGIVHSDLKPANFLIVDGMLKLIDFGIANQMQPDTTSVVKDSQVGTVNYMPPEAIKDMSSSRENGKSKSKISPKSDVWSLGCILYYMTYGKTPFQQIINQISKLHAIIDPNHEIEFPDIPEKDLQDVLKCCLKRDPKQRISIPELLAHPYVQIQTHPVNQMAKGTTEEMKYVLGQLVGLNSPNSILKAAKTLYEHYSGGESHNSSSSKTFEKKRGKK

`CC(C)N1C(=O)C(NCCCN(C)C)=C(c2cn(C)c3ccccc23)C1=O.Cl` was tested, and the Activity [1] was 85%, the Activity [2] was 100% and the Activity [3] was 66%. The Activity [4] was 91%, the Activity [5] was 78% and the inhibition (Neutrophil) was “Active”. For the same compound, the Activity [6] was 99%, the Activity [7] was 83% and the Activity [8] was 88%. For the same compound, the Activity [9] was 100%, the Activity [10] was 69% and the Activity [11] was 100%. For the same compound, the Activity [12] was 87%, the Activity [13] was 100% and the Activity [14] was 93%. It also gave an Activity [15] of 88%, an Activity [16] of 100% and an Activity [17] of 100%. For the same compound, the Activity [18] was 96%, the Activity [19] was 66% and the Activity [20] was 98%. The Activity [21] was 100%, the Activity [22] was 90% and the Activity [23] was 82%.
